# Results reported in patent US20240066028A1, “COMPOSITIONS FOR IMPROVED DELIVERY OF CGRP INHIBITORS” (Pfizer Ireland Pharmaceuticals, priority 2020, published 2024).
# Assays:
# [1] = Study BHV3500-107 Cohort 1: zavegepant 50 mg SoftGel QD PK (fasted Days 1-10, fed Days 11-14); assay type: in vivo, humans; conditions: for Concentration: Cohort 1, 50 mg QD SoftGel, pre-dose
# [2] = Phase 2/3 dose-ranging clinical trial of intranasal BHV-3500; assay type: in vivo, human; conditions: intranasal unit doses 5, 10 and 20 mg; treatment of migraine
# [3] = target: human CGRP (Homo sapiens, UniProt O60894+Q16602); conditions: cited from earlier work
# human CGRP, sequence (Q16602 23-461): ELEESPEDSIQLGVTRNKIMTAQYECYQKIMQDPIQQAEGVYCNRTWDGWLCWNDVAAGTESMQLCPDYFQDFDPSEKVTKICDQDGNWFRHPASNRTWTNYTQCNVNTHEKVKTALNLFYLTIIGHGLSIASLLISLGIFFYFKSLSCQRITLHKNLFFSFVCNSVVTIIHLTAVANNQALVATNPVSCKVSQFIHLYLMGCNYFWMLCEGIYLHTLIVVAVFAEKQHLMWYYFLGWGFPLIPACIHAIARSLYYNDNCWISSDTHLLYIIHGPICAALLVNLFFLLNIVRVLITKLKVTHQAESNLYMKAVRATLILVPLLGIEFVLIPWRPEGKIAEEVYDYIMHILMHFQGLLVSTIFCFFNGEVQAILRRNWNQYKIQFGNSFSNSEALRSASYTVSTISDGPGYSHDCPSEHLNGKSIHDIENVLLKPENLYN
# human CGRP, sequence (O60894 27-148): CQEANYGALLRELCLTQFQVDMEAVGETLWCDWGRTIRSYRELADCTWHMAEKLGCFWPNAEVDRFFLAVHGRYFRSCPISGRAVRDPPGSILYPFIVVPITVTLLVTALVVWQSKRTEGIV
# [4] = PK exposure from 10 mg intranasal (IN) zavegepant; assay type: in vivo, human; conditions: 10 mg IN
# [5] = Study BHV3500-103 Treatment B: PK after 50 mg x 1 SoftGel orally; assay type: in vivo, humans; conditions: Study 103, 50 mg SoftGel x 1 oral; for AUC(0-t) / AUC(0-inf) / Cmax / Tmax: human, in vivo, po, 50 mg
# Method: Single-dose: Study BHV3500-103, PK data after 50 mg×1 (2×25 mg) SoftGel administered orally (Treatment B)
# [6] = female, beagle, dog, in vivo, 50 mg
# [7] = in vivo; conditions: female, beagle, dog, 50 mg; for AUC(0-t): AUC0-4 hr
# [8] = FAO/WHO report; cited from earlier work
# [9] = Cohort 1, Day 10, 50 mg QD SoftGel oral, fasted, multiple dose, Max
# [10] = Cohort 1, Day 10, 50 mg QD SoftGel oral, fasted, multiple dose, Min
# [11] = Day 14 (with food, moderate fat meal) vs. Day 10 (fasted), 50 mg QD SoftGel
# [12] = Study 107, Cohort 1, Day 1, 50 mg SoftGel single dose, fasted
molecule,measurement,setting,value
"Cc1cc(C[C@@H](NC(=O)N2CCC(c3cc4ccccc4[nH]c3=O)CC2)C(=O)N2CCN(C3CCN(C)CC3)CC2)cc2cn[nH]c12 [BHV-3500, (R)-N-(3-(7-methyl-1H-indazol-5-yl)-1-(4-(1-methylpiperidin-4-yl)piperazin-1-yl)-1-oxopropan-2-yl)-4-(2-oxo-1,2-dihydroquinolin-3-yl)piperidine-1-carboxamide]",Pre-dose (C0) concentrations,"[1]; 50 mg QD SoftGel, Days 1-14",largely below the LLOQ
same,Concentration,"[1]; Day 6, fasting, Mean",0.0936 ng/mL
same,Concentration,"[1]; Day 10, fasting, Max",8.5 ng/mL
same,Concentration,"[1]; Day 10, fasting, Mean",0.0582 ng/mL
same,Concentration,"[1]; Day 12, moderate fat meal, Mean",0.0764 ng/mL
same,Concentration,"[1]; Day 12, moderate fat meal, Min",0 ng/mL
same,Concentration,"[1]; Day 14, moderate fat meal, Mean",0 ng/mL
same,Concentration,"[1]; Day 14, moderate fat meal, Min",0 ng/mL
same,Cmax,"[1]; Cohort 1, Day 1, 50 mg SoftGel oral, fasted, single dose, Max",13.8 ng/mL
same,Residual area,"[1]; Cohort 1, Day 1, 50 mg SoftGel oral, fasted, single dose, Median",8.9%
same,Cmax,"[1]; Cohort 1, Day 1, 50 mg SoftGel oral, fasted, single dose, Min",1.42 ng/mL
same,Cmax,[1]; [9],46.1 ng/mL
same,Tmax,[1]; [9],5 h
same,Tmax,"[1]; Cohort 1, Day 10, 50 mg QD SoftGel oral, fasted, multiple dose, Mean, listed as Zavegepant",2.59 h
same,Cmax,[1]; [10],2.27 ng/mL
same,Tmax,[1]; [10],1.5 h
same,Cmax,"[1]; Cohort 1, Day 14, 50 mg QD SoftGel oral, fed (moderate fat meal), multiple dose, Max",3.02 ng/mL
same,Tmax,"[1]; Cohort 1, Day 14, 50 mg QD SoftGel oral, fed (moderate fat meal), multiple dose, Min",2.5 h
same,decrease in extent of absorption (AUC) with food,[1]; [11],~65%
same,decrease in rate of absorption (Cmax) with food,[1]; [11],~72%
same,Tmax,"[1]; Day 14, fed (moderate fat meal), multiple dose, 50 mg QD SoftGel, statistic not stated, listed as zavegepant",3.6 h
same,"AUC0-24, Max",[1]; [12],46.3 ng·h/mL
same,"AUC0-24, Mean",[1]; [12],19.1 ng·h/mL
same,"AUC0-24, Min",[1]; [12],4.66 ng·h/mL
same,"AUCINF_obs, Max",[1]; [12],47.8 ng·h/mL
same,"AUCINF_obs, Mean",[1]; [12],22.6 ng·h/mL
same,"AUCINF_obs, Min",[1]; [12],9.54 ng·h/mL
same,"Cmax, Max",[1]; [12],13.8 ng/mL
same,"Cmax, Min",[1]; [12],1.42 ng/mL
same,"HL_Lambda_z, Geometric Mean",[1]; [12],2.48 h
same,"HL_Lambda_z, Max",[1]; [12],5.07 h
same,"HL_Lambda_z, Mean",[1]; [12],2.66 h
same,"HL_Lambda_z, Median",[1]; [12],2.19 h
same,"HL_Lambda_z, Min",[1]; [12],1.62 h
same,"Tmax, Max",[1]; [12],5.00 h
same,steady state achieved by,"[1]; concentrations at 8 hours post-dose, multiple dosing 50 mg QD, fasted state",≤ 3 days
same,Cmax,"[1]; human, in vivo, oral, 50 mg, Day 10, steady state, fasting, 50 mg QD SoftGel, statistic not stated, range 2.3 to 46.1, read-out: Cmax",5.7 ng/mL
same,AUC(0-t),"[1]; human, in vivo, oral, 50 mg, Day 10, steady state, fasting, 50 mg QD SoftGel, statistic not stated, range 6.7 to 75.4, read-out: AUC0-24",20.4 ng·h/mL
same,Tmax,"[1]; human, in vivo, oral, 50 mg, Day 10, steady state, fasting, 50 mg QD SoftGel, statistic not stated, read-out: Tmax",2 h
same,Tmax,"[1]; human, in vivo, oral, 50 mg, Day 14, fed (moderate fat meal), multiple dose, 50 mg QD SoftGel, statistic not stated, read-out: Tmax",4 h
same,Cmax,"[1]; human, in vivo, oral, 50 mg, Day 14, fed (moderate fat meal), 50 mg QD SoftGel, statistic not stated, range 1.0 to 3.0, read-out: Cmax",1.6 ng/mL
same,AUC(0-t),"[1]; human, in vivo, oral, 50 mg, Day 14, fed (moderate fat meal), 50 mg QD SoftGel, statistic not stated, range 3.7 to 16.6, read-out: AUC0-24",7.3 ng·h/mL
same,AUC(0-t),"[1]; human, in vivo, oral, 50 mg, Study 107, Cohort 1, Day 1, 50 mg SoftGel single dose, fasted, read-out: AUC0-24, Geometric Mean",15.8 ng·h/mL
same,AUC(0-t),"[1]; human, in vivo, oral, 50 mg, Study 107, Cohort 1, Day 1, 50 mg SoftGel single dose, fasted, read-out: AUC0-24, Median",16.7 ng·h/mL
same,AUC(0-inf),"[1]; human, in vivo, oral, 50 mg, Study 107, Cohort 1, Day 1, 50 mg SoftGel single dose, fasted, read-out: AUCINF_obs, Geometric Mean",20 ng·h/mL
same,AUC(0-inf),"[1]; human, in vivo, oral, 50 mg, Study 107, Cohort 1, Day 1, 50 mg SoftGel single dose, fasted, read-out: AUCINF_obs, Median",20.6 ng·h/mL
same,Cmax,"[1]; human, in vivo, oral, 50 mg, Study 107, Cohort 1, Day 1, 50 mg SoftGel single dose, fasted, read-out: Cmax, Geometric Mean",5.3 ng/mL
same,Cmax,"[1]; human, in vivo, oral, 50 mg, Study 107, Cohort 1, Day 1, 50 mg SoftGel single dose, fasted, read-out: Cmax, Mean",6.32 ng/mL
same,Cmax,"[1]; human, in vivo, oral, 50 mg, Study 107, Cohort 1, Day 1, 50 mg SoftGel single dose, fasted, read-out: Cmax, Median",5.73 ng/mL
same,Tmax,"[1]; human, in vivo, oral, 50 mg, Study 107, Cohort 1, Day 1, 50 mg SoftGel single dose, fasted, read-out: Tmax, Geometric Mean",2.18 h
same,Tmax,"[1]; human, in vivo, oral, 50 mg, Study 107, Cohort 1, Day 1, 50 mg SoftGel single dose, fasted, read-out: Tmax, Mean",2.42 h
same,Tmax,"[1]; human, in vivo, oral, 50 mg, Study 107, Cohort 1, Day 1, 50 mg SoftGel single dose, fasted, read-out: Tmax, Median",2.25 h
same,Tmax,"[1]; human, in vivo, po, 50 mg, Cohort 1, Day 1, 50 mg SoftGel oral, fasted, single dose, Geometric Mean, read-out: Tmax",2.18 h
same,Cmax,"[1]; human, in vivo, po, 50 mg, Cohort 1, Day 1, 50 mg SoftGel oral, fasted, single dose, Mean, read-out: Cmax",6.32 ng/mL
same,Tmax,"[1]; human, in vivo, po, 50 mg, Cohort 1, Day 1, 50 mg SoftGel oral, fasted, single dose, Mean, read-out: Tmax",2.42 h
same,Cmax,"[1]; human, in vivo, po, 50 mg, Cohort 1, Day 1, 50 mg SoftGel oral, fasted, single dose, Median, read-out: Cmax",6.78 ng/mL
same,Tmax,"[1]; human, in vivo, po, 50 mg, Cohort 1, Day 1, 50 mg SoftGel oral, fasted, single dose, Median, read-out: Tmax",2.25 h
same,Tmax,"[1]; human, in vivo, po, 50 mg, Cohort 1, Day 10, 50 mg QD SoftGel oral, fasted, multiple dose, Geometric Mean, read-out: Tmax",2.35 h
same,Cmax,"[1]; human, in vivo, po, 50 mg, Cohort 1, Day 10, 50 mg QD SoftGel oral, fasted, multiple dose, Mean, read-out: Cmax",9.71 ng/mL
same,Tmax,"[1]; human, in vivo, po, 50 mg, Cohort 1, Day 10, 50 mg QD SoftGel oral, fasted, multiple dose, Mean, read-out: Tmax",2.69 h
same,Cmax,"[1]; human, in vivo, po, 50 mg, Cohort 1, Day 10, 50 mg QD SoftGel oral, fasted, multiple dose, Median, read-out: Cmax",4.7 ng/mL
same,Tmax,"[1]; human, in vivo, po, 50 mg, Cohort 1, Day 10, 50 mg QD SoftGel oral, fasted, multiple dose, Median, read-out: Tmax",2 h
same,Cmax,"[1]; human, in vivo, po, 50 mg, Cohort 1, Day 14, 50 mg QD SoftGel oral, fed (moderate fat meal), multiple dose, Geometric Mean, read-out: Cmax",1.62 ng/mL
same,Tmax,"[1]; human, in vivo, po, 50 mg, Cohort 1, Day 14, 50 mg QD SoftGel oral, fed (moderate fat meal), multiple dose, Geometric Mean, read-out: Tmax",3.63 h
same,Tmax,"[1]; human, in vivo, po, 50 mg, Cohort 1, Day 14, 50 mg QD SoftGel oral, fed (moderate fat meal), multiple dose, Mean, read-out: Tmax",3.78 h
same,Cmax,"[1]; human, in vivo, po, 50 mg, Cohort 1, Day 14, 50 mg QD SoftGel oral, fed (moderate fat meal), multiple dose, Median, read-out: Cmax",1.48 ng/mL
same,lowest fully effective dose,[2],10 mg
same,Ki,[3],0.023 nM
same,AUC,[4],33.0 ng·h/mL
same,"AUC0-24, Max",[5],59.0 ng·h/mL
same,"AUCINF_obs, Max",[5],60.1 ng·h/mL
same,"AUCINF_obs, Min",[5],9.21 ng·h/mL
same,"Cmax, Max",[5],26.8 ng/mL
same,"Cmax, Min",[5],1.86 ng/mL
same,"HL_Lambda_z, Geometric Mean",[5],2.17 h
same,"HL_Lambda_z, Max",[5],4.74 h
same,"HL_Lambda_z, Mean",[5],2.28 h
same,"HL_Lambda_z, Median",[5],1.98 h
same,"HL_Lambda_z, Min",[5],1.48 h
same,"Tmax, Min",[5],0.500 h
same,AUC(0-t),"[5]; read-out: AUC0-24, Geometric Mean",21 ng·h/mL
same,AUC(0-t),"[5]; read-out: AUC0-24, Mean",25.3 ng·h/mL
same,AUC(0-t),"[5]; read-out: AUC0-24, Median",18.8 ng·h/mL
same,AUC(0-inf),"[5]; read-out: AUCINF_obs, Geometric Mean",21.5 ng·h/mL
same,AUC(0-inf),"[5]; read-out: AUCINF_obs, Mean",25.8 ng·h/mL
same,AUC(0-inf),"[5]; read-out: AUCINF_obs, Median",19.1 ng·h/mL
same,Cmax,"[5]; read-out: Cmax, Geometric Mean",7.6 ng/mL
same,Cmax,"[5]; read-out: Cmax, Mean",10.8 ng/mL
same,Cmax,"[5]; read-out: Cmax, Median",7.06 ng/mL
same,Tmax,"[5]; read-out: Tmax, Geometric Mean",1.65 h
same,Tmax,"[5]; read-out: Tmax, Mean",1.98 h
same,Tmax,"[5]; read-out: Tmax, Median",1.75 h
same,"AUC0-4 hr, Median/Average",[6],44.4 ng·h/mL
same,"Cmax, Median/Average",[6],31.7 ng/mL
same,"Tmax, Median/Average",[6],0.5 h
same,"t1/2, Median/Average",[6],0.71 h
same,AUC(0-t),[7],40.3 ng·h/mL
same,AUC(0-t),[7]; Median/Average,55.1 ng·h/mL
same,Cmax,"[7]; Cmax, Median/Average",37 ng/mL
same,Tmax,"[7]; Tmax, Median/Average",1 h
same,half-life,[7]; t1/2,0.54 h
same,half-life,"[7]; t1/2, Median/Average",0.77 h
sucrose dodecanoate,NOAEL,[8],20-30 grams/kilogram/day
